Reference: patent US6949528B1, “Compositions containing lysophosphatidic acids which inhibit apoptosis and uses thereof” (priority 1998, dated 2005)

B1: Ovalbumin: ovalbumin from chicken egg (protein, UniProt P01012 2-386, looked up)
Ovalbumin: GSIGAASMEFCFDVFKELKVHHANENIFYCPIAIMSALAMVYLGAKDSTRTQINKVVRFDKLPGFGDSIEAQCGTSVNVHSSLRDILNQITKPNDVYSFSLASRLYAEERYPILPEYLQCVKELYRGGLEPINFQTAADQARELINSWVESQTNGIIRNVLQPSSVDSQTAMVLVNAIVFKGLWEKAFKDEDTQAMPFRVTEQESKPVQMMYQIGLFRVASMASEKMKILELPFASGTMSMLVLLPDEVSGLEQLESIINFEKLTEWTSSNVMEERKIKVYLPRMKMEEKYNLTSVLMAMGITDVFSSSANLSGISSAESLKISQAVHAAHAEINEAGREVVGSAEAGVDAASVSEEFRADHPFLFCIKHIATNAVLFFGRCVSP
B2: α-fetoprotein: α-fetoprotein from fetal bovine serum (protein, UniProt Q3SZ57 19-610, looked up)
Alpha-fetoprotein: RTMHKNAYGIDSILDSSPCSSGTNLVGLATIFFAQSVQGATYEEVSQMVKDVLTIIEKPTGSKQPAGCLENQVSAFLEEICREKEIPEKYGLSDCCSRTGEERHDCFLAHKKAAPASIPPFPVLEPVTSCKSYKENRELFINRYIYEIARRHPVLYAPTILSVANQYNKIIPHCCKAENATECFETKVTSITKELRESSLLNQHICAVMGKFGPRTFRAITVTKVSQKFPKANFTEIQKLVMDVAHIHEECCKGNVLECLQDGERVMSYICSQQDILSRQIAECCKLPTTLELGHCIIHAENDDKPEGLSPNVNRFLGDRDFNQLSSRDKDLSMARFTYEYSRRHTKLAVPIILRVAKGYQELLEKCSQSENPSECQDKGEEELEKYIQESQALAKRSCGLFQKLGEYYLQNAFLVAYTKKAPQLTSPELMALTRKMANAGAICCHLSEDKQLACGEGVADLIIGHLCIRHEENPINPGVDQCCTSSYSNRRPCFSSLVVDETYVPPPFSDDKFIFHKDLCQVQGVPLQTMKQQFLINLVKQKPQITEEQLETVVADFSGLLEKCCQSQEQEVCFTEEGPALISKTRAALGV

Key:
[1] = system: rat neonatal cardiomyocytes; assay: Cardiomyocyte death induced by serum/glucose deprivation; assay type: cell-based; details: serum/glucose deprivation
Experimental: Cardiomyocytes were prepared from hearts of day-old Sprague Dawley rats by trypsinization and mechanical disaggregation (Simpson, (1985)) Circ. Res. 56:884-894. The cells were resuspended in MEM, 1×MEM vitamins (Gibco), 5% fetal bovine serum and 50 U/ml penicillin-G and pre-plated for 30 minutes to reduce contamination of non-myocytes. The non-adherent cardiac myocytes were separated and seeded in 2 ml in 35 mm dishes at a density of 3.5×10^5 viable cells per ml. The cells were allowed to adhere for 16-24 hours in a 37° C./5% CO2 humidified incubator.
For serum deprivation, the medium was replaced with fresh serum-free RPMI, whereas serum/glucose deprivation was performed using glucose-free RPMI. The induction of cell death by adriamycin or C2-ceramide was accomplished by the addition of the agent prepared in serum-free RPMI. As a model of ischemia, cultures in serum and glucose free RPMI were placed in an airtight chamber and the latter was continuously perfused with oxygen-free gas overlay of 95% N2/5% CO2 for 8 hours at 37° C. To model reperfusion of the ischemic cells, 10% fetal bovine serum, 2 g/L of glucose were added and the cultures were returned to a normal oxygen gas overlay (37° C./5% CO2) in a humidified incubator for 16 hours.
T investigate effects of LPA, LPA plus other phospholipids, PEG or their mixtures on cell death, various combinations of these components were added to cells in serum free medium at the beginning of cytotoxic treatment.
Because cardiomyocytes are terminally differentiated non-dividing cells, viability was determined by measurement of the decrease in the relative number of adherent cells. […] Adherent cardiomyocytes were collected from culture dishes using 0.25% Trypsin/0.05% EDTA and counted on Coulter Counter ZM and Coulter Channelyzer 256.

C3H/10T1/2 cells [2] = assay: Anti-apoptotic activity assay: serum deprivation of C3H/10T1/2 cells; assay type: cell-based; details: serum-deprived C3H/10T1/2 cells, 24 hours of treatment
From the text: In order to determine the […] of the claimed invention, the following method of analysis was used. The cell assay is described in detail in U.S. Pat. Nos. 5,637,486, 5,620,888, and 5,681,703, and Tomei et al. (1993) Proc Natl. Aci. 90:853-857. Briefly, mouse fibroblast C3H/10T1/2 cells (clone 8) were obtained from ATCC (Rockville, Md.) and were maintained in exponential growth phase in which the cell cycle is randomly distributed and no cells are arrested in G0, and in quiescence. Exponential growth phase was assured by seeding at 2000 cells per 1 ml (5 ml for 60 mm culture plate) five days prior to the beginning of the experiment. Assays were performed on cells only up to passage 15. At T=0, cultures were transferred to serum-free medium, as an appropriate stimulus, and seed extracts were added. Controls included 10^−7 and 5×10^−8 M 12-O-tetradecanoyl phorbol-13-acetate (TPA) to ensure the responsiveness of the cell culture. The samples were added to serum free medium and sterile filtered prior to addition to the cultures. Assays were performed in triplicate or quadruplicate. Analyses of the cell responses were made between 18 and 28 hours of serum deprivation. Two assays were performed on each cell culture plate consisting of differential cell counts.
1. All non-adherent or loosely adherent cells were removed from the culture dish and counted by appropriate techniques, typically counting by electronic particle counting instrument. These are the apoptotic cells, the serum deprived released cells (SDR), released by the action of cultivation in serum-free medium. Approximately 95% of these released cells are apoptotic as shown by both ultrastructure analysis and DNA fragmentation analysis.
2. The remaining adherent cells (ADH) were exposed to a buffered, typically pH 7.3, balanced salt solution such as a Hanks Balanced Salt Solution without calcium and magnesium salts containing 0.05% trypsin and 0.53 mM ethylene diaminetetraacetic acid (EDTA). Each culture was incubated at either room temperature or 37(C on a rocking platform to ensure uniform distribution of the trypsin reagent over the culture surface. After a standardized period of time, typically 10 minutes, the released cells were removed from each culture dish and measured by the same means as described above, typically electronic particle counting. This ADH cell count is comprised of both trypsin resistant and trypsin sensitive cells as described in U.S. Pat. Nos. 5,637,486, 5,620,888, and 5,681,703.
Anti-apoptotic activity is expressed in the following examples as the calculated concentration of material ((g/ml of media) required to save 50% of the cells released on serum free treatment.
The ability of 18:1-LPA an other LPAs to protect serum-starved cells from apoptotic death was measured using the C3H/10T1/2 cell assay, performed as described in Example 2. The effect of various compounds on the ability of lysophosphatidic acid to protect serum-starved cells from apoptotic death was also measured. Log phase cells were seeded in 60 mm Petri dishes at 175-350 cells per cm2 and maintained in Basal Medium Eagle (BME) supplemented with 10% Heat Inactivated Fetal Bovine Serum (HIFBS). On day 3 the cells were given fresh media. Treatment began on day 5 when the media containing serum was removed and replaced with the LPA mixture to be tested. After 24 hours of treatment, day 6, serum deprived released (SDR) cells (the […] cell population) and adherent (ADH) cells were separated and counted using an electronic cell counter (Coulter Corporation, Hialea, Fla.). […]

C3H/10T1/2 cells [3] = assay: Effect of proteins on anti-apoptotic activity of soy LPA, C3H/10T1/2 cell assay; assay type: cell-based; details: for Protein +10 (g/mL Soy LPA, percent cells saved from apoptosis): 1:10 soy-LPA to protein (weight:weight); for Protein +10 (g/mL Soy LPA, percent cells saved from apoptosis) / Protein Alone (0.01%), percent cells saved from apoptosis: 24 hours serum deprivation; for Increase with LPA: difference protein + soy LPA minus protein alone; for Protein Alone (0.01%), percent cells saved from apoptosis: protein without LPA; for enhancement of the anti-apoptotic activity of soy-LPA (more than additive protection): soy-LPA added together with protein
Experimental: Soy derived LPA (soy-LPA) (Avanti® Polar Lipids, Inc., Alabaster, Ala.) was stored in an organic solution and was dried immediately prior to assay using a Speed Vac (Savant Instruments, Hicksville, N.Y.). Tested proteins were resuspended at 10_mg/mL in a bicarbonate buffered saline/EDTA solution (50_mM NH4HCO3, […] NaCl, 250_(M EDTA) prior to being added to dried soy-LPA at a 1:10_soy-LPA to protein (weight:weight) ratio. The mixture was then sonicated for 5 minutes using a high power 80 Watt sonication bath (Laboratory Supplies Co., Hicksville, N.Y.). Following sonication, concentrated LPA/protein mixtures were left standing for 15 minutes at room temperature prior to dilution in cell culture assay media.
The effect of various proteins on the ability of LPA to protect serum-starved cells from apoptotic death was measured using the C3H/10T1/2 cell assay, performed as described in Example 2, above. Log phase cells were seeded in 60 mm Petri dishes at 175-350 cells per cm^2 and maintained in Basal Medium Eagle (BME) supplemented with 10% fetal calf serum (Hyclone, Logan, Utah). At time zero, serum containing media was replaced with sterile filtered BME containing the LPA/protein mixture to be tested. After 24 hours of treatment, serum deprived release (SDR) cells (the apoptotic cell population) and adherent (ADH) cells were separated and counted using an electronic cell counter (Coulter Corporation, Hialea, Fla.). SDR cells were counted with the lower threshold setting at 6.3_(m and were defined as the apoptotic cells dying in response to cultivation in serum-free-media. Approximately 95% of the SDR cells are confirmed to be apoptotic as previously shown by size, ultrastructure and DNA fragmentation analysis. Adherent cells were removed by treatment with a Hanks' balanced salt solution containing 0.05% trypsin and 0.53_mM EDTA and were counted with the lower threshold setting at 11.01_(m. All samples were tested in triplicate and serum-deprived controls (BME only) were assayed at both the beginning and end of each experiment.

[4] = Electrophoresis radiobinding assay (native polyacrylamide gel); assay type: binding; details: FIG. 9 and other experiments
Experimental: Electrophoresis radiobinding assay. Proteins were analyzed on native polyacrylamide gels following incubation with ^3H-labeled 18:1-LPA. ^3H-labeled lysophosphatidic acid (1-oleyl) (DuPont NEN Products, Boston, Mass.) was added to tested proteins at 1 nM labeled 18:1-LPA/45_(g protein. Mixtures were incubated at a bicarbonate buffered saline/EDTA solution at 37° C. for 60 minutes. Incubated samples were mixed with native gel sample buffer (312_mM Tris pH 6.8, 50% glycerol, 0.05% bromophenol blue) and loaded entirely onto an 8% discontinuous native polyacrylamide gel. Following electrophoresis, proteins were fixed into the gels using an aqueous solution consisting of glacial acetic acid, 10% (vol/vol) and methan 130% (vol./vol.) solution. Fixed gels were then incubated for 60 minutes in autoradiography enhancer (EN^3HANCE, DuPont NEN Products, Boston, Mass.), and dried onto 3M chromatography paper (Whatman, Clifton, N.J.) and exposed to autoradiography film (X-Omat, Kodak, Rochester, N.Y.) for 72 hours at −80° C.

[5] = Size shift assay (Superdex S75 column); assay type: binding; details: FIGS. 10A-10D
Experimental: Size shift assay. Size analysis of LPA both with and without protein was performed using a Superdex® S75 column (Pharmacia Biotech, Uppsala, Sweden). Soy LPA was combined in a chloroform solution with 0.5 Ci^3H-labeled 18:1-LPA (DuPont NEN Products, Boston, Mass.), dried under vacuum and resuspended by sonication in a buffered solution (50 mM ammonium bicarbonate, 154 mM sodium chloride, pH 8.0) in the presence or absence of test protein. The ammonium bicarbonate/sodium chloride solution was used as the mobile phase at a flow rate of 1 ml/min. One-minute fractions were collected for 30 minutes following sample injection. Fractions were counted in scintillant solution using a liquid scintillation counter (Beckman Instrument, Irvine, Calif.). Calibration was performed using a standard solution containing purified proteins (BioRad, Hercules, Calif.).

| Molecule | Concentration ranges for cardiomyocyte protection [1] | Maximum effect relative to 18:1 LPA in cardiomyocytes [1] [%] | Concentration for Max Effect (C3H/10T1/2 cells [2]) [µM] | Maximum effect relative to 18:1 LPA (C3H/10T1/2 cells [2]) [%] | Protein +10 (g/mL Soy LPA, percent cells saved from apoptosis) (C3H/10T1/2 cells [3]) | Increase with LPA (C3H/10T1/2 cells [3]) | Protein Alone (0.01%), percent cells saved from apoptosis (C3H/10T1/2 cells [3]) [%] | enhancement of the anti-apoptotic activity of soy-LPA (more than additive protection) (C3H/10T1/2 cells [3]) | binding to 18:1-LPA, detectable band [4] | elution profile / binding of LPA to protein [5] |
| --- | --- | --- | --- | --- | --- | --- | --- | --- | --- | --- |
| CCCCCCCC/C=C\CCCCCCCC(=O)OCCCOP(=O)(O)O [Compound 30, 1-(3-propyl oleoate)phosphate] | 1 to 10 µM | 150 | 30 | 100 | – | – | – | – | – | – |
| CCCCCCCC/C=C\CCCCCCCC(=O)OCCCOP(O)(O)=S [Compound 68, 1-(3-propyloleoate)thiophosphate] | .003 to 10 µM | 100 | 1 | 150 | – | – | – | – | – | – |
| Acyl Carrier Protein: acyl carrier protein from E. coli | – | – | – | – | 36.2% | +28.1% | 8.1 | to a lesser degree | did not yield detectable bands | – |
| Albumin (Fatty Acid Depleted): fatty acid depleted (FAD) bovine serum albumin (BSA) | – | – | – | – | 58.7% | +57.8% | 0.9 | – | bind to 18:1-LPA | most of the LPA was bound to BSA |
| Cytochrome C: cytochrome C from bovine heart | – | – | – | – | 54.6% | +38.4% | 16.2 | – | – | LPA does not bind to this protein |
| B1 | – | – | – | – | 15.I | +7.2% | 7.9 | did not enhance | produce a detectable band | – |
| B2 | – | – | – | – | – | – | – | – | bind to 18:1-LPA | – |
